# Reference: PMC8079065, “Design, synthesis and in vitro and in vivo biological evaluation of flurbiprofen amides as new fatty acid amide hydrolase/cyclooxygenase-2 dual inhibitory potential analgesic agents” (Journal of Enzyme Inhibition and Medicinal Chemistry, 2021)
# Where two headings read alike, the source gives them in different places.
# Assays:
# FAAH [1] = molecular target: T1, FAAH (Rattus norvegicus, UniProt P97612); assay: FAAH assay: [3H]AEA hydrolysis by rat brain homogenates; assay type: biochemical; conditions: for IC50: 0.5 µM [3H]AEA, rat brain homogenates; for increase in FAAH inhibitory activity versus Flu-AM1: IC50 compared with Flu-AM1; for FAAH potency versus flurbiprofen: IC50 compared with flurbiprofen
# T1 construct: rat or mouse brain homogenates as the enzyme source; from tissue; host or cells: rat brain (minus cerebellum), Wistar or Sprague-Dawley, washed membrane homogenate
# T1 sequence (P97612 1-579): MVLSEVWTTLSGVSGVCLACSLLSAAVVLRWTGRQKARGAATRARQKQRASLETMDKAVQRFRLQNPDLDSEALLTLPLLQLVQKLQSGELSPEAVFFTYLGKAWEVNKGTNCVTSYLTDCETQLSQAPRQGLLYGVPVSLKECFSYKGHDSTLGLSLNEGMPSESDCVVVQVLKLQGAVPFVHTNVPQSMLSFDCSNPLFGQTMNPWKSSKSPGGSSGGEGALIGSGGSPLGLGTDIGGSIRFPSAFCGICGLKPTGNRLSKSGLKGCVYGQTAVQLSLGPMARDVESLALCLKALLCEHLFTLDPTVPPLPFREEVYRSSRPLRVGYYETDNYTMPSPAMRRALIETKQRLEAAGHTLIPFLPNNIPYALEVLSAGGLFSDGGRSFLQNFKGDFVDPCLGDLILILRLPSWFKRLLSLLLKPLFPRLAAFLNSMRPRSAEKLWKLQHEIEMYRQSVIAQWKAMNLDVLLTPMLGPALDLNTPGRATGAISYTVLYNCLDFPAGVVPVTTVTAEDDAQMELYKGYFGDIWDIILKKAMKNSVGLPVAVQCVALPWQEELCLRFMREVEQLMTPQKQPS
# CD1 male mice [2] = assay: Carrageenan-induced paw oedema; assay type: in vivo; conditions: 10 mg/kg ip, 5 min after carrageenan; p < 0.05
# Description: The behavioural experiments were performed on CD1 male mice (25–30 g Charles Rivers-Italy). They were housed in the animal care facility of the Department Experimental of Pharmacology, University of Naples. The animals were acclimated to their environment for 1 week and had ad libitum access to standard rodent chow pellets VRF1 (purchased from Special Diet Service-SDS). All behavioural tests were performed between 9:00 AM and 13:00 PM, and the animals were only used once. Procedures involving animals and their care were conducted in conformity with international and national law and policies (EU Directive 2010/63/EU for animal experiments). The procedures reported here were approved by the Institutional Committee on the Ethics of Animal Experiments (CSV) of the University of Naples “Federico II” and by the “Ministero della Salute”, protocol no. 2014–0084607. […]
# Paw edoema was induced by a subplantar injection of 0.1 ml of sterile saline containing 1% λ-carrageenan (Sigma Aldrich) into the right hind paw. Paw volumes were measured by a plethysmometer (Ugo Basile, Italy) at different times after the paw injection. The increase in paw volume was evaluated as the difference between the paw volume measured (Vm) at each time point (1, 2, 4, 6 and 48 h post carrageenan) and the basal paw volume (Vb) measured immediately before carrageenan injection (Δ volume = Vm – Vb).
# NFκB-p65 = assay: NF-κB-p65 expression in the spinal cord of CCI-mice; assay type: in vivo; conditions: 10 mg/kg ip, 1 h before
# FAAH [3] = molecular target: T2, FAAH (Mus musculus, UniProt O08914); assay: FAAH assay: [3H]AEA hydrolysis by mouse brain homogenates; assay type: biochemical; conditions: 0.5 µM [3H]AEA
# T2 construct: rat or mouse brain homogenates as the enzyme source; from tissue; host or cells: mouse brain (minus cerebellum), male B6CBAF1/J, washed membrane homogenate
# T2 sequence (O08914 1-579): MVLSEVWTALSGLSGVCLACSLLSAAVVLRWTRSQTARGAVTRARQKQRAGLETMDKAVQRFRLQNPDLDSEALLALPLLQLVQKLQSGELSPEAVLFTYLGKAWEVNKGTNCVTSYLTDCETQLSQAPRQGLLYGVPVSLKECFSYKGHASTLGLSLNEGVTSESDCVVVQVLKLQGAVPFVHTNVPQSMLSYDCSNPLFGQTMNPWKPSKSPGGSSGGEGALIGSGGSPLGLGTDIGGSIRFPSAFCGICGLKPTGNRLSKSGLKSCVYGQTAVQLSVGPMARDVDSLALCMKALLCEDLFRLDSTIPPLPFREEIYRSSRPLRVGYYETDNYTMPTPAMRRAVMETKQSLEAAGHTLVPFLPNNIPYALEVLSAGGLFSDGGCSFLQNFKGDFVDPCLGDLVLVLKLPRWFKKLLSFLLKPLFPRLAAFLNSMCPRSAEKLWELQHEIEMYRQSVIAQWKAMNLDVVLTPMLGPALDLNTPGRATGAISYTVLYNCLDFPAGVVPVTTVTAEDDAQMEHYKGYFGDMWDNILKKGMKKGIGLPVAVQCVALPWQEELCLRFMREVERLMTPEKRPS
# CD1 male mice [4] = assay: CCI neuropathic pain model, mechanical allodynia (von Frey test); assay type: in vivo; conditions: 1 h before test, day 7 and 14
# Description: (§1) The behavioural experiments were performed on CD1 male mice (25–30 g Charles Rivers-Italy). They were housed in the animal care facility of the Department Experimental of Pharmacology, University of Naples. The animals were acclimated to their environment for 1 week and had ad libitum access to standard rodent chow pellets VRF1 (purchased from Special Diet Service-SDS). All behavioural tests were performed between 9:00 AM and 13:00 PM, and the animals were only used once. Procedures involving animals and their care were conducted in conformity with international and national law and policies (EU Directive 2010/63/EU for animal experiments). The procedures reported here were approved by the Institutional Committee on the Ethics of Animal Experiments (CSV) of the University of Naples “Federico II” and by the “Ministero della Salute”, protocol no. 2014–0084607. At the end of all experiments for all pain models, the animals were euthanized by CO2 overdose.
# (§2) During this study, Flu-AM4 was administered systemically (intraperitoneally) and locally (intraplantar 100 microg/paw). For systemic administration, the compound was dissolved in PEG400 20% v/v, TWEEN 80 5% (v/v) and sterile saline and used at different doses (1–3–10 mg/kg). Vehicle group was only treated with PEG, TWEEN and sterile saline. For intraplantar administration Flu-AM4 was dissolved in PEG400 10% v/v, TWEEN 80 5% (v/v) and formalin 5% in sterile saline.
# (§3) Neuropathic pain was induced by ligation of the sciatic nerve as described previously. […] At day 7 and 14 Mechanical Allodynia (von Frey test) and Mechanical hyperalgesia (Randall-Selitto test) were assessed. […]
# To assess for changes in sensation or in the development of mechanical allodynia, sensitivity to tactile stimulation was measured using the Dynamic Plantar Aesthesiometer (DPA, Ugo Basile, Italy). […]
# iNOS = iNOS expression in the spinal cord of CCI-mice; assay type: in vivo; conditions: 10 mg/kg ip, 1 h before
# CD1 male mice [5] = assay: Carrageenan-induced mechanical hyperalgesia (Randall-Selitto); assay type: in vivo; conditions: 10 mg/kg ip, 5 min after carrageenan
# Description: as §1
# (§4) During this study, Flu-AM4 was administered systemically (intraperitoneally) and locally (intraplantar 100 microg/paw). […]
# Paw withdrawal threshold (PWT) to mechanical pressure was measured with a Randall-Selitto Analgesy-Meter for mice (Ugo Basile, Italy). PWT was measured on the ispsilateral paw at 1, 2, 4, 6 and 48 h post carrageenan injection. […]
# CD1 male mice [6] = assay: CCI neuropathic pain model, mechanical hyperalgesia (Randall-Selitto test); assay type: in vivo; conditions: 1 h before test, day 7 and 14
# Description: as §1, §2
# Paw withdrawal threshold (PWT) to mechanical pressure was measured with a Randall-Selitto Analgesy-Meter for mice (Ugo Basile, Italy). PWT was measured on the ispsilateral paw at 1, 2, 4, 6 and 48 h post carrageenan injection. Each paw was tested twice per session. Cut-off force was set at 100 g.
# as §3
# CD1 male mice [7] = assay: Formalin-evoked hind-paw licking; assay type: in vivo; conditions: phase I and II
# Description: as §1, §4
# Mice received intraplantar injections of formalin in saline (10%,vol/vol; 10 µl/paw). Paw licking was monitored by an observer blind to the experimental treatment for periods of 0–15 min (early phase) and 15–60 min (late phase) immediately after formalin administration. […]
# human recombinant COX-2 = system: T3, human recombinant COX-2; assay: COX-2 inhibition, oxygen electrode assay; assay type: biochemical; conditions: 10 µM compound, 10 µM 2-AG
# T3 construct: purchased Cayman Chemical Co. 60122
# Description: The assay was performed according to Meade et al.[58] with minor modifications. An oxygen electrode chamber with integral stirring (Oxygraph System, Hansatech Instruments, […].) was calibrated daily to ambient temperature and air pressure. The assay buffer contained 100 mM Tris-HCl buffer pH 7.4, 1 μM haematin, 2 mM phenol, 5 mM EDTA, 10 μM substrate (arachidonic acid or 2-AG) (final assay volume was 2 ml). After addition of Flu-AM4 dissolved in ethanol (final assay concentration 1%), a baseline was established for 5 min before initiation of reaction by addition of 200 units of either ovine COX-1 or human recombinant COX-2. The change in oxygen consumption as a measurement of enzyme activity was monitored for approximately 5 min.
# ovine COX-1 = system: T4, ovine COX-1; assay: COX-1 inhibition, oxygen electrode assay; assay type: biochemical; conditions: 10 µM compound, 10 µM arachidonic acid
# T4 construct: purchased Cayman Chemical Co. 60100
# Description: The assay was performed according to Meade et al.[58] with minor modifications. An oxygen electrode chamber with integral stirring (Oxygraph System, Hansatech Instruments, King’s Lynn, U.K.) was calibrated daily to ambient temperature and air pressure. The assay buffer contained 100 mM Tris-HCl buffer pH 7.4, 1 µM haematin, 2 mM phenol, 5 mM EDTA, 10 µM substrate (arachidonic acid or 2-AG) (final assay volume was 2 ml). After addition of Flu-AM4 dissolved in ethanol (final assay concentration 1%), a baseline was established for 5 min before initiation of reaction by addition of 200 units of either ovine COX-1 or human recombinant COX-2. The change in oxygen consumption as a measurement of enzyme activity was monitored for approximately 5 min.
# COX-2 = COX-2 expression in the spinal cord of CCI-mice; assay type: in vivo; conditions: 10 mg/kg ip, 1 h before
# FAAH [8] = molecular target: T1, FAAH; conditions: shown for comparative purposes, cited from earlier work; for IC50: rat brain, read-out: IC50 for inhibition of rat brain AEA hydrolysis
# FAAH [9] = conditions: cited from earlier work
# [10] = derived from pI50, read-out: IC50 for inhibition of rat brain AEA hydrolysis
# [11] = means ± s.e.m., n = 3–4, read-out: pI50 (-logIC50) for inhibition of rat brain AEA hydrolysis (converted)
structure (smiles),measurement,setting,value
"CC(C(=O)Nc1ncccc1C(F)(F)F)c1ccc(-c2ccccc2)c(F)c1 (stereo not shown) [Flu-AM3, 2–(2-Fluoro-(1,1'-biphenyl)-4-yl)-N-(3-(trifluoromethyl)pyridin-2-yl)propanamide]",IC50,FAAH [1]; [10],110 nM
same,IC50,FAAH [1]; [11],110 nM
same,increase in FAAH inhibitory activity versus Flu-AM1,FAAH [1]; rat brain,about 4 fold
"CC(C(=O)Nc1ncccc1Br)c1ccc(-c2ccccc2)c(F)c1 (stereo not shown) [Flu-AM4, N-(3-Bromopyridin-2-yl)-2-(2-fluoro-(1,1'-biphenyl)-4-yl)propanamide]",carrageenan-induced paw oedema,CD1 male mice [2],reduced paw oedema at 2 and 4 h
same,NFκB-p65 expression in the spinal cord,NFκB-p65,significantly reduced this expression
same,IC50,FAAH [3],430 nM
same,CCI-induced mechanical allodynia (Von Frey),CD1 male mice [4]; 1 mg/kg ip,did not show any effect
same,CCI-induced mechanical allodynia (Von Frey),CD1 male mice [4]; 3 mg/kg ip,showed efficacy only at the 14-day time point in both tests
same,CCI-induced mechanical allodynia (Von Frey),CD1 male mice [4]; 10 mg/kg ip,increased paw withdrawal latency in both test and in all experimental time
same,iNOS expression in the spinal cord,iNOS,significantly reduced this expression
same,carrageenan-induced paw hyperalgesia,CD1 male mice [5],reduce hyperalgesia seen 2 h after carrageenan
same,CCI-induced mechanical hyperalgesia (Randall-Selitto),CD1 male mice [6]; 1 mg/kg ip,did not show any effect
same,CCI-induced mechanical hyperalgesia (Randall-Selitto),CD1 male mice [6]; 3 mg/kg ip,showed efficacy only at the 14-day time point in both tests
same,CCI-induced mechanical hyperalgesia (Randall-Selitto),CD1 male mice [6]; 10 mg/kg ip,increased paw withdrawal latency in both test and in all experimental time
same,IC50,FAAH [1]; [10],21 nM
same,IC50,FAAH [1]; [11],21.4 nM
same,Ki,"FAAH [1]; rat brain [3H]AEA hydrolysis, competitive model",13 nM
same,increase in FAAH inhibitory activity versus Flu-AM1,FAAH [1]; rat brain,approximately 20 fold
same,FAAH potency versus flurbiprofen,FAAH [1]; rat brain,more than three orders of magnitude greater than flurbiprofen
same,mode of FAAH inhibition (kinetics),"FAAH [1]; rat brain, best fit by Akaike's criteria",competitive inhibition
same,reversibility of FAAH inhibition,"FAAH [1]; rat brain, preincubation and 20-fold dilution experiments",reversible inhibitor
same,potency towards rat brain FAAH versus mouse brain FAAH,FAAH [1]; rat vs mouse brain,an order of magnitude more potent towards rat brain FAAH than mouse brain FAAH
same,"formalin-induced paw licking, local application","CD1 male mice [7]; 100 µg intraplantar, co-administered with formalin 5%, p < 0.001",reduced the paw licking time in both phases
same,"formalin-induced paw licking, systemic administration","CD1 male mice [7]; 10 mg/kg ip, 1 h before formalin, p < 0.001 vs vehicle",reduce the behavioural responses in both phases
same,inhibition of cyclooxygenation of 2-AG by COX-2,human recombinant COX-2,completely inhibited
same,inhibition of cyclooxygenation of AA by COX-1,ovine COX-1,only partially inhibiting
same,COX-2 expression in the spinal cord,COX-2,significantly reduced this expression
Cc1cccnc1NC(=O)C(C)c1ccc(-c2ccccc2)c(F)c1 (stereo not shown) [Flu-AM1],IC50,FAAH [8],440 nM
same,pI50 (-logIC50) for inhibition of rat brain AEA hydrolysis,FAAH [8],6.36 ± 0.02
same,potency against FAAH versus flurbiprofen,FAAH [9],about 60 fold
"CC(C(=O)Nc1ncccc1Cl)c1ccc(-c2ccccc2)c(F)c1 (stereo not shown) [Flu-AM6, N-(3-Chloropyridin-2-yl)-2-(2-fluoro-(1,1'-biphenyl)-4-yl)propanamide]",IC50,FAAH [1]; [10],19 nM
same,IC50,FAAH [1]; [11],19.1 nM
same,increase in FAAH inhibitory activity versus Flu-AM1,FAAH [1]; rat brain,approximately 20 fold
same,FAAH potency versus flurbiprofen,FAAH [1]; rat brain,more than three orders of magnitude greater than flurbiprofen
CC(C(=O)O)c1ccc(-c2ccccc2)c(F)c1 (stereo not shown) [Flurbiprofen],IC50,FAAH [8],29000 nM
same,pI50 (-logIC50) for inhibition of rat brain AEA hydrolysis,FAAH [8],4.53 ± 0.02
Cc1cccnc1NC(=O)C(C)c1ccc(CC(C)C)cc1 (stereo not shown) [Ibu-AM5],potency against FAAH versus ibuprofen,FAAH [9],2-3 orders of magnitude
